# Laboratory results taken from PubChem BioAssay (NCI).
#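 Compound exposure: 48 hours, 5 concentrations, 96-well plates. TGI marks complete inhibition of growth.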
# Experiments:
# Test in all cases: NCI anticancer screen, dose series, 48 h
# SK-OV-3 ovarian = system: SK-OV-3 ovarian
# MALME-3M melanoma = system: MALME-3M melanoma
# SNB-19 CNS = system: SNB-19 CNS
# NCI/ADR-RES ovarian = system: NCI/ADR-RES ovarian
# NCI-H522 lung = system: NCI-H522 lung
# EKVX NSCLC = system: EKVX NSCLC
# MDA-MB-435 = system: MDA-MB-435
# UACC-257 melanoma = system: UACC-257 melanoma
# NCI-H23 lung = system: NCI-H23 lung
# A498 renal = system: A498 renal
# TK-10 renal = system: TK-10 renal
# MCF7 breast = system: MCF7 breast
# SNB-75 CNS = system: SNB-75 CNS
# SF-539 CNS = system: SF-539 CNS
# NCI-H460 lung = system: NCI-H460 lung
# LOX IMVI melanoma = system: LOX IMVI melanoma
# OVCAR-8 ovarian = system: OVCAR-8 ovarian
# MDA-MB-231 breast = system: MDA-MB-231 breast
SMILES,TGI (SK-OV-3 ovarian),TGI (MALME-3M melanoma),TGI (SNB-19 CNS),TGI (NCI/ADR-RES ovarian),TGI (NCI-H522 lung),TGI (EKVX NSCLC),TGI (MDA-MB-435),TGI (UACC-257 melanoma),TGI (NCI-H23 lung),TGI (A498 renal),TGI (TK-10 renal),TGI (MCF7 breast),TGI (SNB-75 CNS),TGI (SF-539 CNS),TGI (NCI-H460 lung),TGI (LOX IMVI melanoma),TGI (OVCAR-8 ovarian),TGI (MDA-MB-231 breast)
CN(C)/C=N/c1cc(=O)n(C)c(=O)n1C,> 100 µM,> 100 µM,> 100 µM,> 100 µM,> 100 µM,> 100 µM,> 100 µM,> 100 µM,> 100 µM,> 100 µM,> 100 µM,> 100 µM,> 100 µM,> 100 µM,> 100 µM,> 100 µM,> 100 µM,> 100 µM
COC(=O)c1ccccc1/C=C1\Cc2ccc3c(c2C1=O)CCC3,> 100 µM,> 100 µM,,> 100 µM,> 100 µM,> 100 µM,> 100 µM,> 100 µM,> 100 µM,> 100 µM,> 100 µM,> 100 µM,> 100 µM,> 100 µM,> 100 µM,> 100 µM,> 100 µM,> 100 µM
O=c1c2ccccc2nc(-c2ccccc2)n1/N=C/c1ccccc1[N+](=O)[O-],> 100 µM,> 100 µM,56.7 µM,> 100 µM,> 100 µM,> 100 µM,> 100 µM,> 100 µM,58.8 µM,> 100 µM,> 59.6 µM,> 100 µM,34.2 µM,> 100 µM,> 100 µM,> 100 µM,> 100 µM,> 72.8 µM
COC(=O)C1=C(C)NC(CF)=C(C(=O)OC)C1c1cccc2c(=O)c3ccccc3oc12 (centres undefined),> 100 µM,83.6 µM,,27.8 µM,> 100 µM,> 100 µM,> 100 µM,> 100 µM,> 100 µM,94.5 µM,> 100 µM,> 100 µM,> 100 µM,> 100 µM,> 100 µM,> 100 µM,> 100 µM,> 100 µM
CC(=O)Nn1c(Cc2ccc(Cl)cc2)nn(C)c1=O,> 100 µM,> 100 µM,> 100 µM,> 100 µM,> 100 µM,> 100 µM,> 100 µM,> 100 µM,> 100 µM,> 100 µM,> 100 µM,> 100 µM,> 100 µM,> 100 µM,> 100 µM,> 100 µM,> 100 µM,> 100 µM
CSc1ccccc1NC1=NCCO1,,> 100 µM,> 100 µM,> 100 µM,> 100 µM,> 100 µM,> 100 µM,> 100 µM,> 100 µM,> 100 µM,> 100 µM,> 100 µM,,> 100 µM,> 100 µM,> 100 µM,> 100 µM,> 100 µM
O=[N+]([O-])c1ccc(C2=NOC(c3ccccc3)N2C23CC4CC(CC(C4)C2)C3)cc1 (centres undefined),> 100 µM,85.5 µM,,> 100 µM,35.3 µM,> 100 µM,44.5 µM,> 100 µM,> 100 µM,> 100 µM,> 100 µM,60.1 µM,63.7 µM,> 100 µM,47.5 µM,29.3 µM,48.4 µM,> 100 µM
CN(C)CCNc1ncnc2nc(-c3ccccc3)c(-c3ccccc3)nc12,> 100 µM,> 100 µM,,> 100 µM,> 100 µM,> 100 µM,> 100 µM,> 100 µM,> 100 µM,> 100 µM,> 100 µM,> 100 µM,> 100 µM,> 100 µM,,> 100 µM,> 100 µM,> 100 µM
COc1ccc(/C=C/c2cc(O)cc(OC3OC(CO)C(O)C(O)C3O)c2)cc1O (centres undefined),> 100 µM,> 100 µM,> 100 µM,> 100 µM,> 100 µM,> 100 µM,> 100 µM,> 100 µM,,> 100 µM,> 100 µM,> 100 µM,> 100 µM,> 100 µM,> 100 µM,> 100 µM,> 100 µM,> 100 µM
COc1cc2c(SCCN(C)C)nc3ccccc3c2c2ccccc12,25.6 µM,3.99 µM,8.14 µM,16.5 µM,2.79 µM,4.08 µM,3.3 µM,3.38 µM,15 µM,35.8 µM,7.23 µM,3.02 µM,8.32 µM,3.61 µM,3.33 µM,,,5.52 µM
CSc1ncc2c(C#N)c3n(C)c4ccccc4n3c(=O)c2n1,> 100 µM,> 100 µM,> 100 µM,> 100 µM,,> 100 µM,> 100 µM,> 100 µM,> 100 µM,> 100 µM,> 100 µM,> 100 µM,> 100 µM,> 100 µM,> 100 µM,> 100 µM,> 100 µM,> 100 µM
C=C1C(=O)O[C@H]2C(=O)[C@H](C)CCC/C(C)=C/CC[C@@]3(C)O[C@@H]3C[C@@H]12,30.3 µM,,24.1 µM,40.5 µM,4.06 µM,,5.82 µM,11.7 µM,29.3 µM,32.8 µM,1.65 µM,15 µM,,6.63 µM,30.8 µM,3.03 µM,3.59 µM,23.3 µM
O=C(O[C@H](/C=C/c1ccccc1)P1(=O)N(Cc2ccccc2)[C@H]2CCCC[C@@H]2N1Cc1ccccc1)c1ccccc1,> 100 µM,25.6 µM,> 100 µM,> 100 µM,> 100 µM,> 100 µM,46.2 µM,> 100 µM,48.3 µM,> 100 µM,> 100 µM,> 100 µM,,> 100 µM,> 100 µM,11.6 µM,> 100 µM,25.7 µM
